In article PMC4541410 (Scientific Reports, 2015):
Like-named read-outs stand apart in the source and are kept apart here. Where a SMILES comes first, the peptide text is derived from it.

How the values were obtained:
[1] = target: T1, gp41 6-HB formation between N36 and C34 (Human immunodeficiency virus type 1 group M subtype B, UniProt P04578); experiment: biochemical; format: biochemical, HIV-1; details: read-out: IC50, inhibition of 6-HB formation between C34 and N36; N36 1 μM preincubated with peptide 37 °C 30 min, then C34 1 μM; ELISA with mAb NC-1; triplicate
T1 construct: gp41 NHR (“N36”, 546-581); made in house; host or cells: chemical solid-phase FMOC synthesis
Protocol: Inhibition of gp41 six-helix bundle formation by a testing peptide was determined with a sandwich ELISA described previously. […] A450 was determined by an ELISA reader (Ultra 384, Tecan).

[2] = tested on: HIV-1Bal (subtype B, R5); details: read-out: IC50, inhibition of infection by HIV-1Bal; M7 cells, 100 TCID50, p24 ELISA day 7; triplicate, repeated twice
From the text: (§1) Then, the culture supernatants were changed to fresh media. On the fourth day post-infection, culture supernatants were collected for detection of p24 antigen by ELISA. […] Then, the culture supernatants were changed to fresh media. On the fourth day post-infection, the culture supernatants were discarded and fresh media were complemented again. The supernatants were collected on the seventh day post-infection and tested for p24 antigen by ELISA as previously described. The percent inhibition of p24 production was calculated.

[3] = tested on: HIV-1IIIB (subtype B, X4); details: read-out: IC50, inhibition of infection by HIV-1IIIB; MT-2 cells, 100 TCID50, p24 ELISA day 4; triplicate, repeated twice
From the text: as §1

[4] = tested on: HIV-1IIIB (subtype B, X4); experiment: Inhibition of HIV-1 IIIB infection by peptides in the presence of sera from HIV-1-infected patients; format: cell-based; details: for Fold change of IC50, HPS-1: HPS-1 relative to N; for Fold change of IC50, HPS-2: HPS-2 relative to N; for Fold change of IC50, HPS-3: HPS-3 relative to N; for Fold change of IC50, HPS-4: HPS-4 relative to N; for Fold change of IC50, HPS-5: HPS-5 relative to N; for IC50: MT-2 cells, triplicate, mean ± SD
Protocol: Inhibition of peptides on HIV-1IIIB (subtype B, X4)infection in the presence of HIV-1-infected patients’ sera was determined as previously described. Briefly, each peptide was mixed with serially diluted serum from an HIV-1-infected patient at room temperature for 30 min. Next, the mixture of peptide/serum and HIV-1 (100 TCID50) were added to MT-2 cells (1 × 10^5/ml) in RPMI 1640 medium containing 10% FBS. After incubation at 37 °C overnight, the culture supernatants were replaced with fresh culture medium.

[5] = tested on: preexisting antibodies in sera from HIV-1-infected patients; experiment: Sandwich ELISA: cross-reactivity of peptides with preexisting antibodies in HIV-1-infected patients; format: binding, human; details: peptide coated at 10 μg/ml, serially diluted sera, 37 °C 1 h, A450
Protocol: A sandwich ELISA was conducted to determine the cross-reactivity of the peptides with the preexisting antibodies in HIV-1-infected patients. […] The wells were then blocked with 1% gelatin, followed by addition of 50 μl of serially diluted sera from HIV-1-infected patients and incubation at 37 °C for 1 h. Then, HRP-labeled goat-anti-human IgG (Abcam, UK) and TMB were added sequentially. A450 was determined with an ELISA reader (Ultra 384, Tecan).

[6] = target: T2, N36 (gp41 NHR peptide) (Human immunodeficiency virus type 1 group M subtype B, UniProt P04578); experiment: CD spectroscopy and thermal midpoint analysis of peptide/N36 complexes; format: physicochemical, HIV-1; details: for Tm of complex with N36: CD thermal denaturation at 222 nm, 4 to 98 °C, 5 °C/min, 10 μM in PBS pH 7.2; for α-helix content of complex with N36: CD, peptide/N36 mixture 10 μM in PBS pH 7.2, 4 °C
T2 construct: gp41 NHR (“N36”, 546-581); made in house; host or cells: chemical solid-phase FMOC synthesis
Protocol: Briefly, each peptide or peptide mixture was dissolved in phosphate-buffered saline (PBS: 50 mM sodium phosphate and 150 mM NaCl, pH 7.2) at the final concentration of 10 μM and incubated at 37 °C for 30 min before cooling down to 4 °C. The CD spectra of each sample were acquired on a Jasco spectropolarimeter (Model J-815, Jasco Inc., Japan) at 4 °C using a 5 nm bandwidth, 0.1 nm resolution, 0.1 cm path length and an average time of 5.0 sec. Spectra were corrected by the subtraction of a blank corresponding to the solvent composition of each sample. Thermal midpoint analysis was used to determine the temperature at which 50% of the 6-HB formed by the CHR and NHR would decompose. It was monitored at 222 nm from 4 °C to 98 °C by applying a thermal gradient of 5 °C/min. The melting curve was smoothed and the midpoint of the thermal unfolding transition (Tm) values was calculated using Jasco software utilities as described above.

[7] = tested on: 92UG024 (D); format: cell-based; details: primary HIV-1 isolate, subtype D; read-out: IC50 (nM), infection by primary isolate 92UG024 (D)
[8] = tested on: NP1525 (A/E); format: cell-based; details: primary HIV-1 isolate, subtype A/E; read-out: IC50 (nM), infection by primary isolate NP1525 (A/E)
[9] = tested on: 93BR020 (F); format: cell-based; details: primary HIV-1 isolate, subtype F; read-out: IC50 (nM), infection by primary isolate 93BR020 (F)
[10] = tested on: T20-resistant HIV-1 variant V38A; format: cell-based
[11] = tested on: T20-resistant HIV-1 variant V38A/N42D; format: cell-based
[12] = tested on: T20-resistant HIV-1 variant N42T/N43K; format: cell-based
[13] = tested on: T20-resistant HIV-1 variant V38E/N42S; format: cell-based
[14] = tested on: T20-resistant HIV-1 variant V38A/N42T; format: cell-based
[15] = tested on: 92UG029 (A); details: read-out: IC50 (nM), infection by primary isolate 92UG029 (A); primary HIV-1 isolate, subtype A
[16] = tested on: 94US_33931N (B); details: read-out: IC50 (nM), infection by primary isolate 94US_33931N (B); primary HIV-1 isolate, subtype B
[17] = tested on: 93IN101 (C); details: read-out: IC50 (nM), infection by primary isolate 93IN101 (C); primary HIV-1 isolate, subtype C
[18] = tested on: 92TH009 (A/E); details: read-out: IC50 (nM), infection by primary isolate 92TH009 (A/E); primary HIV-1 isolate, subtype A/E
[19] = tested on: BCF020 (Group O); details: read-out: IC50 (nM), infection by primary isolate BCF020 (Group O), primary HIV-1 isolate
[20] = intravenous 1 mg/kg, male SD rats, n = 2; plasma by sandwich ELISA; PK Solver
[21] = in vivo; details: male, Sprague-Dawley (SD), rat, plasma, iv, 1 mg/kg
[22] = in presence of serum of HIV-1-infected patient HPS-1, read-out: IC50 (nM), HIV-1 IIIB infection, HPS-1
[23] = in presence of serum of HIV-1-infected patient HPS-2, read-out: IC50 (nM), HIV-1 IIIB infection, HPS-2
[24] = in presence of serum of HIV-1-infected patient HPS-3, read-out: IC50 (nM), HIV-1 IIIB infection, HPS-3
[25] = in presence of serum of HIV-1-infected patient HPS-4, read-out: IC50 (nM), HIV-1 IIIB infection, HPS-4
[26] = in presence of serum of HIV-1-infected patient HPS-5, read-out: IC50 (nM), HIV-1 IIIB infection, HPS-5

T2 sequence (P04578 546-581): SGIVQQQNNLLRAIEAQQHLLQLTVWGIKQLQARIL
T1 sequence (P04578 546-581): as above

COc1ccc(S(=O)(=O)O)cc1N=Nc1c(S(=O)(=O)O)cc2cc(Nc3nc(Nc4ccccc4)nc(Nc4cc(C)c(N=Nc5cc(S(=O)(=O)O)cc6cc(S(=O)(=O)O)cc(O)c56)cc4OC)n3)ccc2c1O [ADS-J1, reference compound]
IC50 [1]: 2750 nM

CC[C@H](C)[C@H](NC(=O)[C@H](CO)NC(=O)[C@H](CCC(=O)O)NC(=O)[C@H](CCC(=O)O)NC(=O)[C@H](CCC(N)=O)NC(=O)[C@H](CCCCN)NC(=O)[C@H](CCCCN)NC(=O)[C@@H](NC(=O)[C@H](CCC(N)=O)NC(=O)[C@H](CCC(=O)O)NC(=O)[C@H](CCC(=O)O)NC(=O)[C@@H](NC(=O)[C@H](CCCCN)NC(=O)[C@H](CCCCN)NC(=O)[C@@H](NC(=O)[C@H](CC(C)C)NC(=O)[C@H](CCC(=O)O)NC(=O)[C@H](CCC(=O)O)NC(=O)[C@H](CO)NC(=O)[C@H](CCCCN)NC(=O)[C@H](CCCCN)NC(=O)[C@@H](NC(=O)[C@H](CC(C)C)NC(=O)[C@H](CCC(=O)O)NC(=O)[C@H](CCC(=O)O)NC(=O)[C@@H](NC(=O)[C@H](CCC(=O)O)NC(=O)[C@H](CCCNC(=N)N)NC(=O)[C@H](CC(=O)O)NC(=O)[C@H](Cc1c[nH]c2ccccc12)NC(=O)[C@H](CCC(=O)O)NC(=O)[C@H](CCSC)NC(=O)[C@H](Cc1c[nH]c2ccccc12)NC(C)=O)[C@@H](C)CC)[C@@H](C)CC)[C@@H](C)CC)[C@@H](C)CC)[C@@H](C)CC)C(=O)N[C@@H](CCCCN)C(=O)N[C@@H](CCCCN)C(N)=O [AP1] (Ac-WMEWDREIEELIKKSEELIKKIEEQIKKQEESIKK-NH2)
IC50 [2]: 396 nM
IC50 [3]: 86.2 nM
Fold change of IC50, HPS-1 [4]: 0.8
Fold change of IC50, HPS-2 [4]: 0.6
Fold change of IC50, HPS-3 [4]: 1.5
Fold change of IC50, HPS-4 [4]: 0.8
Fold change of IC50, HPS-5 [4]: 0.6
IC50 [4, 22]: 87.4 ± 54.8 nM
IC50 [4, 23]: 70.1 ± 44.9 nM
IC50 [4, 24]: 165 ± 26.6 nM
IC50 [4, 25]: 89.5 ± 20.6 nM
IC50 [4, 26]: 68.5 ± 22.6 nM
reactivity with antibodies in sera from five HIV-1-infected patients [5]: none of the three artificial peptides AP1, AP2 and AP3 was recognized
Tm of complex with N36 [6]: 59.6 ^oC
α-helix content of complex with N36 [6]: 65.36%

CC[C@H](C)[C@H](NC(=O)[C@H](CO)NC(=O)[C@H](CCC(=O)O)NC(=O)[C@H](CCC(=O)O)NC(=O)[C@H](CCC(N)=O)NC(=O)[C@H](CCCCN)NC(=O)[C@H](CCCCN)NC(=O)[C@@H](NC(=O)[C@H](CCC(N)=O)NC(=O)[C@H](CCC(=O)O)NC(=O)[C@H](CCC(=O)O)NC(=O)[C@@H](NC(=O)[C@H](CCCCN)NC(=O)[C@H](CCCCN)NC(=O)[C@@H](NC(=O)[C@H](CC(C)C)NC(=O)[C@H](CCC(=O)O)NC(=O)[C@H](CCC(=O)O)NC(=O)[C@H](CO)NC(=O)[C@H](CCCCN)NC(=O)[C@H](CCCCN)NC(=O)[C@@H](NC(=O)[C@H](CC(C)C)NC(=O)[C@H](CCC(=O)O)NC(=O)[C@H](CCC(=O)O)NC(=O)[C@@H](NC(=O)[C@H](CCCCN)NC(=O)[C@H](CCCCN)NC(=O)[C@H](CC(=O)O)NC(=O)[C@H](Cc1c[nH]c2ccccc12)NC(=O)[C@H](CCC(=O)O)NC(=O)[C@H](CCC(=O)O)NC(=O)[C@H](Cc1c[nH]c2ccccc12)NC(C)=O)[C@@H](C)CC)[C@@H](C)CC)[C@@H](C)CC)[C@@H](C)CC)[C@@H](C)CC)C(=O)N[C@@H](CCCCN)C(=O)N[C@@H](CCCCN)C(N)=O [AP2] (Ac-WEEWDKKIEELIKKSEELIKKIEEQIKKQEESIKK-NH2)
IC50 [2]: 50 nM
IC50 [3]: 23.1 nM
IC50 [7]: 34.5 ± 2.3 nM
IC50 [8]: 65.6 ± 10.9 nM
IC50 [9]: 42.7 ± 1.4 nM
IC50 [10]: 41.4 ± 8.65 nM
IC50 [11]: 63.5 ± 6.37 nM
IC50 [12]: 72.7 ± 7.53 nM
IC50 [13]: 87.4 ± 5.26 nM
IC50 [14]: 262 ± 5.63 nM
Fold change of IC50, HPS-1 [4]: 0.5
Fold change of IC50, HPS-2 [4]: 0.7
Fold change of IC50, HPS-3 [4]: 1.7
Fold change of IC50, HPS-4 [4]: 0.8
Fold change of IC50, HPS-5 [4]: 1.5
IC50 [4, 22]: 24.3 ± 10.2 nM
IC50 [4, 23]: 30.3 ± 4.2 nM
IC50 [4, 24]: 78.3 ± 8.6 nM
IC50 [4, 25]: 35.1 ± 2.3 nM
IC50 [4, 26]: 69.3 ± 3.2 nM
reactivity with antibodies in sera from five HIV-1-infected patients [5]: none of the three artificial peptides AP1, AP2 and AP3 was recognized
Tm of complex with N36 [6]: 82.3 ^oC
α-helix content of complex with N36 [6]: 69.51%
IC50 [15]: 39.9 ± 4.2 nM
IC50 [16]: 38 ± 12.5 nM
IC50 [17]: 35.6 ± 0.9 nM
IC50 [18]: 50 ± 4.5 nM
IC50 [19]: 47.1 ± 2.1 nM
Cmax [20]: 667.43 µg/mL
MRT [21]: 7.57 h
half-life [21]: 5.25 h

Enfuvirtide
IC50 [2]: 30.2 nM
IC50 [3]: 13.6 nM
IC50 [7]: 15.5 ± 3.5 nM
IC50 [8]: 29.7 ± 6.9 nM
IC50 [9]: 24.5 ± 3.6 nM
IC50 [10]: 943 ± 46.4 nM
IC50 [11]: > 2000 nM
IC50 [12]: > 2000 nM
IC50 [13]: > 2000 nM
IC50 [14]: > 5000 nM
IC50 [4, 22]: 128 ± 20.5 nM
IC50 [4, 23]: 134 ± 44.9 nM
IC50 [4, 24]: 157 ± 22 nM
IC50 [4, 25]: > 200 nM
IC50 [4, 26]: > 200 nM
IC50 [15]: 8.6 ± 1.7 nM
IC50 [16]: 16.2 ± 2.8 nM
IC50 [17]: 16.8 ± 6.5 nM
IC50 [18]: 14.2 ± 12.4 nM
IC50 [19]: 30.8 ± 0.5 nM
